Residues, ends and D or L forms follow the SMILES beside them. No end group written: not given here.
How the values were obtained:
TAP-negative tumor cells = test: Preferential recognition of TAP-negative over TAP-positive tumor cells by peptide-stimulated T cell cultures (TEIPP screen); assay type: cell-based, human; details: TAP-negative vs TAP-positive tumor cells
Experimental: TCR-transduced or bulk-cultured TEIPP T cells were tested for their ability to selectively recognize the indicated TEIPP epitope presented on TAP impaired tumors by co-culturing them for 18 hours with wild-type (wt), TAP-KO and/or TAP/TIMP3-KO tumor cells at a 5-to-1 target-to-T cell ratio, after which supernatants were harvested and analyzed for cytokine production by GM-CSF, CCL4 and/or IFNg ELISA. Unstimulated and peptide-stimulated T cells were used as negative and positive controls. For some experiments, also endogenous TEIPP antigen-expressing healthy cells such as Epstein-Barr virus (EBV) transformed B-cells, monocytes or monocyte-derived dendritic cells were included as additional controls. Test were performed in triplo in 96 well round bottom plates at 1:1 target to effector ratio.
36 peptides (designated 101 to 136) were selected for their capacity to activate CD8+ T cells present in peripheral blood mononuclear cells (PBMC) of maximal 5 healthy donors, following the protocol described earlier (Marnjt et al., 2018). […] After an in vitro expansion and enrichment of the responding T cell cultures, 18 of the 21 cases could be tested for their capacity to preferentially recognize TAP-negative tumor cells over TAP-positive tumor cells. […] These cultures were stimulated with peptide 105, 113, or 124. […]

[1] = system: p124-specific CD8 T cells; test: Cross-presentation of synthetic long peptides by monocyte-derived dendritic cells to p124-specific CD8 T cells; assay type: cell-based, human; details: moDC loaded with 10 μM SLP; for cross-presentation of synthetic long peptide (V-variant epitope): FIG. 8; for T cell activation by cross-presented synthetic long peptide (wild type epitope): FIG. 7
Experimental: HLA-A*02:01 positive PBMCs were isolated from buffy-coats from consented donors (Sanquin bloodbank, Amsterdam), using a gradient ficoll layer. PBMCs were incubated with anti-CD14 magnetic beads for 20 min at 4° C. and the CD14 positive monocytes were isolated using magnetic separation columns (miltenyi). CD14+ monocyte were cultured in RPMI medium supplemented with 10% FCS, GM-CSF (800 units/ml), and IL-4 (500 units/ml) for 6 days to generate immature monocyte-derived dendritic cells. On day 6, the immature moDCs were incubated with synthetic long peptide (10 μM, Genscript) for 2h, followed by overnight incubation with LPS (20 ng/ml). Matured and loaded moDCs (30,000 cells) were washed and co-cultured with previously established tetramer positive T cells (50,000 cells) for 16 h. Direct presentation of synthetic long peptides was tested by continuous incubation with TIMP3-specific CD8 T cell bulk for 16 h in the absence of moDC. Cytokine release by T cells was then measured in supernatants by ELISA.
The synthetic long peptide (SLP) platform is highly immunogenic and successfully applied in therapeutic SLP vaccination for HPV-induced cancers (Kenter et al. 2009; van Poelgeest et al. 2016). Therefore, the inventors examined the efficiency of cross-presentation of long versions of the TIMP3-derived signal peptide SLGDWGAEA (SEQ ID NO: 2) in dendritic cells, using natural flanking amino acids extending the amino-terminus, the carboxy-terminus, or both ends (Table 3). Monocyte-derived dendritic cells (moDC) were incubated with these three SLPs (P124 long 1-3; SEQ ID NOs: 22-24), then matured, and used as targets for the p124-specific CD8 T cell culture to assess correct processing and HLA-A2 presentation of the minimal TEIPP epitope. Despite the fact that the c-terminus was an alanine, the TIMP3-derived signal peptide SLGDWGAEA (SEQ ID NO: 2) was cross-presented by DCs from a longer peptide to p124-specific CD8 T cells (FIG. 7).
Therefore, the cross-presentation of the V-variant was evaluated as synthetic long peptide extended with natural flanking amino acids (Table 3). After uptake and processing of the five different variants (P124 long V1-3, V1-4, V1-6, V2 and V3; SEQ ID NOs: 25, 110, 111, 26 and 27), moDCs were co-cultured with the p124-specific T cell cultures and cytokine production was measured (FIG. 8). […] The lack of recognition of DCs not loaded with peptide reiterates that moDCs, despite the high expression of TIMP3 (FIG. 4), are not recognized.

[2] = system: SLGDWGAEA-specific T cells; test: Interferon-gamma production of SLGDWGAEA-specific T cells stimulated with variant peptides pulsed on HLA-A*0201 positive EBV transformed B-cells; assay type: cell-based, human; details: for Recognition (IC50): concentration of peptide for half maximal interferon-gamma production of SLGDWGAEA-specific T cells; for response of peptide 124-specific CD8+ T cell culture to variant peptide: short minimal peptides exogenously pulsed on HLA-A*0201 positive EBV transformed B-cells
From the text: The inventors investigated if exchanges into another amino acids would result in a more efficiently processed epitope. First, they examined whether these substitutions would interfere with T cell receptor interaction. The inventors exogenously pulsed the short minimal peptides of Table 4 with the C-terminal valine (V), leucine (L), isoleucine (I), or methionine (M) on HLA-A*0201 positive EBV transformed B-cells and measured the activation of the peptide 124-specific CD8+ T cell culture.

[3] = system: p124-specific CD8 T cells; test: Stimulation of p124-specific T cells by exogenous short p124 peptide; assay type: cell-based, human; details: FIG. 7
Experimental: The peptide 124-specific T-cell culture from donor 4409 was stimulated with HLA-A*0201 matched monocyte-derived dendritic cells (MoDCs) from three different donors (indicated by MoDCs 0559, MoDC 4553 and MoDC 7401), which were loaded with (10 uM for 20-24h) the indicated synthetic long peptides (SLP) (“p124 long 1” (SEQ ID NO: 22), (“p124 long 2” (SEQ ID NO: 23), (“p124 long 3” (SEQ ID NO: 24)) or with no peptide as background control. The T cell culture incubated with 25 ug/ml the p124-peptide SLGDWGAEA served as positive control for reactivity (indicated by “T cells+p124”). The amount of interferon-gamma (IFNy) or GM-CSF produced is shown on the y-axis in pg/ml.
The synthetic long peptide (SLP) platform is highly immunogenic and successfully applied in therapeutic SLP vaccination for HPV-induced cancers (Kenter et al. 2009; van Poelgeest et al. 2016). Therefore, the inventors examined the efficiency of cross-presentation of long versions of the TIMP3-derived signal peptide SLGDWGAEA (SEQ ID NO: 2) in dendritic cells, using natural flanking amino acids extending the amino-terminus, the carboxy-terminus, or both ends (Table 3). […]

[4] = system: SLGDWGAEA-specific T cell cultures; test: Tetramer staining of peptide 124-specific T cell cultures; assay type: binding, human; details: three T cell cultures, donors 2028, 4409, 2752
From the text: T cell cultures of donors 2028, 4409 and 2752 were stimulated with the peptide SLGDWGAEA (SEQ ID NO:2) and analyzed via flow cytometry for the percentage of CD8+ T cells and the percentage therein of CD8+ T cells that stained positive with the HLA-A*02:01 tetramer presenting peptide SLGDWGAEA. All three SLGDWGAEA-specific T cell cultures comprise more than 97% CD8+ T cells that stained for more than 99% positive with SLGDVGAEA-loaded HLA-A*02:01 tetramers (indicated by HLA-A*02:01: SLGDWGAEA™ in FIG. 1). These SLGDWGAEA-specific T cells were used in subsequent experiments described below. In the present application and figures, peptide SLGDWGAEA is also referred to as ‘peptide 124’ or ‘p124’.
Buffy coats from healthy donors were obtained from Sanquin (Sanquin blood facility). Informed consent was given in writing by all participants. PBMCs were isolated using a ficoll gradient (density 1.077 g/ml). Approximately 500×10^6 PBMCs were incubated with PE-labeled pHLA-A*02:01 tetramers (Flex-T™ HLA-A*02:01 Monomer UVX van Biolegend) for 30 min at RT. Anti-PE magnetic beads (MACS) were used to pull out pHLA-A*02:01 tetramer-positive cells over a MACS LS column as instructed by the manufacturer (Miltenyi Biotech). T cells were cultured in complete IMDM containing 10% human serum (Sanquin blood facility) and 100 U/ml IL-2 (Proleukine; Novartis). […]

[5] = system: CD8+ T cells present in peripheral blood mononuclear cells (PBMC); test: In vitro expansion of peptide multimer-positive CD8+ T cells from PBMC of healthy donors; assay type: cell-based, human
Experimental: Buffy coats from healthy donors were obtained from Sanquin (Sanquin blood facility). Informed consent was given in writing by all participants. PBMCs were isolated using a ficoll gradient (density 1.077 g/ml). Approximately 500×10^6 PBMCs were incubated with PE-labeled pHLA-A*02:01 tetramers (Flex-T™ HLA-A*02:01 Monomer UVX van Biolegend) for 30 min at RT. Anti-PE magnetic beads (MACS) were used to pull out pHLA-A*02:01 tetramer-positive cells over a MACS LS column as instructed by the manufacturer (Miltenyi Biotech). T cells were cultured in complete IMDM containing 10% human serum (Sanquin blood facility) and 100 U/ml IL-2 (Proleukine; Novartis). Bulk T cells were stimulated every 2 weeks with a mixture of T cells (106), 1 μg/ml synthetic peptide (SLGDWGAEA (SEQ ID NO: 2) (TIMP3)), irradiated PBMCs (10 cells, 50 Gray), and EBV-JY (10W cells, 75 Gray) in complete T cell culture medium supplemented with 100 U/ml IL-2 in 24-well plates (Costar). Culture medium was replenished every 2-3 d with fresh complete T cell medium.
36 peptides (designated 101 to 136) were selected for their capacity to activate CD8+ T cells present in peripheral blood mononuclear cells (PBMC) of maximal 5 healthy donors, following the protocol described earlier (Marnjt et al., 2018). […]

FLGPWPAAS [peptide 105, FLGPWPAAS, reference compound]
recognition pattern of the stimulated T cell culture (classified as TEIPP) (TAP-negative tumor cells): consistent recognition pattern

WLGLIVLLGSWSLGDWGAEV [P124 long V1-3]
cross-presentation of synthetic long peptide (V-variant epitope) [1]: less optimal

SLGDWGAEI [SLGDWGAEI]
Recognition (IC50) ([2]; Table 1): 0.284929 µg/mL
Recognition (IC50) ([2]; Table 4): 0.284929 µg/mL

SLGDWGAEL [SLGDWGAEL]
response of peptide 124-specific CD8+ T cell culture to variant peptide [2]: No response was observed

MTPWLGLIVLLGSWSLGDWGAEA [P124 long 1]
T cell activation by cross-presented synthetic long peptide (wild type epitope) [1]: the T cells were activated

CC[C@H](C)[C@H](N)C(=O)N[C@H](C(=O)N[C@@H](CC(C)C)C(=O)N[C@@H](CC(C)C)C(=O)NCC(=O)N[C@@H](CO)C(=O)N[C@@H](Cc1c[nH]c2ccccc12)C(=O)N[C@@H](CO)C(=O)N[C@@H](CC(C)C)C(=O)NCC(=O)N[C@@H](CC(=O)O)C(=O)N[C@@H](Cc1c[nH]c2ccccc12)C(=O)NCC(=O)N[C@@H](C)C(=O)N[C@@H](CCC(=O)O)C(=O)N[C@@H](C)C(=O)N[C@@H](CS)C(=O)N[C@H](C(=O)N[C@@H](CS)C(=O)N[C@@H](CO)C(=O)N1CCC[C@H]1C(=O)N[C@@H](CO)C(=O)N[C@@H](Cc1c[nH]cn1)C(=O)O)[C@@H](C)O)C(C)C [P124 long 2] (H-IVLLGSWSLGDWGAEACTCSPSH-OH)
T cell activation by cross-presented synthetic long peptide (wild type epitope) [1]: the T cells were activated

SLGDWGAEA [SLGDWGAEA]
Recognition (IC50) ([2]; Table 1): 0.092525 µg/mL
Recognition (IC50) ([2]; Table 4): 0.092525 µg/mL
T cell stimulation by exogenous pulsing of short peptide [3]: stimulated the T cells
recognition pattern of the stimulated T cell culture (classified as TEIPP) (TAP-negative tumor cells): consistent recognition pattern
CD8+ T cells stained positive with SLGDWGAEA-loaded HLA-A*02:01 tetramers [4]: more than 99%
CD8+ T cells stained positive with SLGDWGAEA-loaded HLA-A*02:01 tetramers ([4]; listed as peptide 124): > 99%
donors with outgrowth of p124-specific T cells [5]: 10 donors

LGLIVLLGSWSLGDWGAEV [P124 long V1-4, LGLIVLLGSWSLGDWGAEV]
cross-presentation of synthetic long peptide (V-variant epitope) [1]: enhanced T cell stimulation and more efficient cross-presentation

SLGDWGAEV [SLGDWGAEV]
Recognition (IC50) ([2]; Table 1): 0.001471 µg/mL
Recognition (IC50) ([2]; Table 4): 0.001471 µg/mL
improvement of the stimulation of p124-specific T cells vs. c-terminal alanine peptide ([2]; specifically at the lower peptide concentration range): 61 fold

SLGDWGAEM [SLGDWGAEM]
response of peptide 124-specific CD8+ T cell culture to variant peptide [2]: No response was observed

CC(C)C[C@H](NC(=O)[C@@H](N)CO)C(=O)NCC(=O)N[C@@H](CC(=O)O)C(=O)N[C@@H](Cc1c[nH]c2ccccc12)C(=O)NCC(=O)N[C@@H](C)C(=O)N[C@@H](CCC(=O)O)C(=O)N[C@@H](C)C(=O)N[C@@H](CS)C(=O)N[C@H](C(=O)N[C@@H](CS)C(=O)N[C@@H](CO)C(=O)N1CCC[C@H]1C(=O)N[C@@H](CO)C(=O)N[C@@H](Cc1c[nH]cn1)C(=O)N1CCC[C@H]1C(=O)N[C@@H](CCC(N)=O)C(=O)N[C@@H](CC(=O)O)C(=O)N[C@@H](C)C(=O)N[C@@H](Cc1ccccc1)C(=O)N[C@@H](CS)C(=O)N[C@@H](CC(N)=O)C(=O)O)[C@@H](C)O [P124 long 3] (H-SLGDWGAEACTCSPSHPQDAFCN-OH)
T cell activation by cross-presented synthetic long peptide (wild type epitope) [1]: No recognition was observed

LIVLLGSWSLGDWGAEV [P124 long V1-6, LIVLLGSWSLGDWGAEV]
cross-presentation of synthetic long peptide (V-variant epitope) [1]: enhanced T cell stimulation and more efficient cross-presentation

CC[C@H](C)[C@H](N)C(=O)N[C@H](C(=O)N[C@@H](CC(C)C)C(=O)N[C@@H](CC(C)C)C(=O)NCC(=O)N[C@@H](CO)C(=O)N[C@@H](Cc1c[nH]c2ccccc12)C(=O)N[C@@H](CO)C(=O)N[C@@H](CC(C)C)C(=O)NCC(=O)N[C@@H](CC(=O)O)C(=O)N[C@@H](Cc1c[nH]c2ccccc12)C(=O)NCC(=O)N[C@@H](C)C(=O)N[C@@H](CCC(=O)O)C(=O)N[C@H](C(=O)N[C@@H](CS)C(=O)N[C@H](C(=O)N[C@@H](CS)C(=O)N[C@@H](CO)C(=O)N1CCC[C@H]1C(=O)N[C@@H](CO)C(=O)N[C@@H](Cc1c[nH]cn1)C(=O)O)[C@@H](C)O)C(C)C)C(C)C [P124 long V2] (H-IVLLGSWSLGDWGAEVCTCSPSH-OH)
cross-presentation of synthetic long peptide (V-variant epitope) [1]: cross-presentation was lost
